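Cultured in 96-well plates, cells were exposed to test compound for 48 hours across five concentrations. Abbreviation: GI50, concentration required for 50% inhibition of growth.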 The source made the active and inactive calls. Cut-off read from the data, not from the text of the source: active = GI50 up to about 1.1 µM and inactive = higher.
Legend:
Experiment in all cases: inhibition of tumour cell growth, NCI panel, 48 h
LOX IMVI = tested on: LOX IMVI
M19-MEL = tested on: M19-MEL
PC-3 = tested on: PC-3
KM-20L2 = tested on: KM-20L2
XF498 = tested on: XF498
MDA-MB-435 = tested on: MDA-MB-435
NCI-H460 = tested on: NCI-H460
SN12C = tested on: SN12C
MDA-N = tested on: MDA-N
OVCAR-4 = tested on: OVCAR-4
SF-268 = tested on: SF-268
M14 = tested on: M14
NCI/ADR-RES = tested on: NCI/ADR-RES
HCT-116 = tested on: HCT-116
SW-620 = tested on: SW-620
A549 = tested on: A549
Malme-3M = tested on: Malme-3M
TK-10 = tested on: TK-10
OVCAR-5 = tested on: OVCAR-5
RPMI-8226 = tested on: RPMI-8226

| Structure (SMILES) | GI50 (LOX IMVI) | GI50 (M19-MEL) | GI50 (PC-3) | GI50 (KM-20L2) | GI50 (XF498) | GI50 (MDA-MB-435) | GI50 (NCI-H460) | GI50 (SN12C) | GI50 (MDA-N) | GI50 (OVCAR-4) | GI50 (SF-268) | GI50 (M14) | GI50 (NCI/ADR-RES) | GI50 (HCT-116) | GI50 (SW-620) | GI50 (A549) | GI50 (Malme-3M) | GI50 (TK-10) | GI50 (OVCAR-5) | GI50 (RPMI-8226) |
| --- | --- | --- | --- | --- | --- | --- | --- | --- | --- | --- | --- | --- | --- | --- | --- | --- | --- | --- | --- | --- |
| COCC(=O)OC1CCn2c1nc1c2C(=O)C(C)=C(NC(C)=O)C1=O (configuration not stated) | 4.34 µM (inactive) | 11.7 µM (inactive) | 2.27 µM (inactive) | 20.4 µM (inactive) | 4.41 µM (inactive) | 1.89 µM (inactive) | 17.5 µM (inactive) | 7.26 µM (inactive) | 1.85 µM (inactive) | 1.85 µM (inactive) | 6.73 µM (inactive) | 11.1 µM (inactive) | 4.49 µM (inactive) | 3.05 µM (inactive) | 7.4 µM (inactive) | 21.6 µM (inactive) | 2.77 µM (inactive) | 18.2 µM (inactive) | 8.57 µM (inactive) | 2.33 µM (inactive) |
| O=C(C(=O)c1cc2ccccc2[nH]1)c1cc2ccccc2[nH]1 | > 347 µM (inactive) | > 195 µM (inactive) |  | > 347 µM (inactive) | > 176 µM (inactive) |  | > 321 µM (inactive) | 237 µM (inactive) |  | 58.3 µM (inactive) | > 347 µM (inactive) | 213 µM (inactive) |  | 98.6 µM (inactive) | 153 µM (inactive) | > 347 µM (inactive) | 152 µM (inactive) | > 347 µM (inactive) | > 347 µM (inactive) | 22 µM (inactive) |
| COc1ccc(CN[C@H]2CCc3cc(OC)c(OC)c(OC)c3-c3ccc(SC)c(=O)cc32)c(OC)c1OC | 0.0352 µM (active) | 0.0338 µM (active) |  | 0.0185 µM (active) | 0.0308 µM (active) |  | 0.026 µM (active) | 0.0381 µM (active) |  | 0.0343 µM (active) | 0.0366 µM (active) | 0.0308 µM (active) |  | 0.0229 µM (active) | 0.0416 µM (active) | 0.0459 µM (active) | 0.0484 µM (active) | 0.0849 µM (active) | 0.0421 µM (active) | 0.0352 µM (active) |
